{"source": "patent US20050272040A1", "about": "“Method for increasing synaptic growth or plasticity” (priority 2002, published 2005)", "tested_on": "hippocampal cells", "test": "Real-time RT-PCR of genes induced by neurotrophin treatment of hippocampal cultures", "type": "cell-based, rat", "conditions": "50 ng/mL, RT-PCR vs control, average ± standard error", "protocol": "The molecular genetics underlying BDNF-evoked plasticity were examined by expression profiling using cDNA microarrays on a population of hippocampal cells in vitro. Synaptic effects of BDNF are observed within 20 minutes of exposure (Levine et al. (1996) supra; Lessmann and Heumann (1998) supra; Schinder et al. (2000) supra). A 3-hour BDNF treatment has been used to identify several genes with roles in synaptic plasticity (Thakker-Varia et al. (2001) supra). Consequently, to reveal immediate, as well as downstream transcriptional changes, both acute (20 minutes) and longer treatment (3 hours) with BDNF were used herein. […] Two independent Atlas arrays were performed using RNA from hippocampal cells treated for either 20 minutes or 3 hours of BDNF (50 ng/mL) and control sister cultures.\nOf those genes selected, the regulation of 7% at 20 minutes and 40% at 3 hours were validated, although the magnitude of regulation was not always identical to that observed on the microarray. To focus on genes specifically involved in plasticity, a related neurotrophin, nerve growth factor (NGF), not inducing synaptic plasticity (Levine et al. (1996) supra), served as a control.\nTime-mated pregnant rats were sacrificed by CO2 asphyxiation in accordance with institutional guidelines for care and use of animals. Fetuses were removed by caesarean section and transferred to a sterile petri dish with phosphate-buffered saline. Fetal hippocampi were dissected from surrounding brain tissue and meninges were completely removed. Low-density cultures of dissociated embryonic day 18 rat hippocampi (Sprague Dawley from Hilltop Laboratories, Scottsdale, Pa.) were prepared using standard methods (Thakker-Varia et al. (2001) supra). Briefly, pooled tissue from each litter was mechanically dissociated in nutrient medium containing 7.5% fetal bovine serum and plated on poly-D-lysine-coated culture dishes at 350,000 cells/dish. Cultures were maintained in serum-free medium (Thakker-Varia et al., 2001) for 10-14 days and contained pure neurons.\nTotal cellular RNA was prepared from neuronal cultures treated with either BDNF (50 ng/ml) or vehicle (water) for either 20 min or 3 hr by the guanidine isothiocyanate method and CsCl gradients (Thakker-Varia et al., 2001). DNAse-treated total RNA was prepared from neurotrophin or control hippocampal cultures and reverse transcribed using gene specific primers. Radioactively labeled probes were then hybridized to Atlas Arrays Rat 1.2 (Clontech, Palo Alto, Calif.) according to manufacturer's protocol. Arrays were performed in duplicate with an independent source of RNA. The hybridization pattern was analyzed on a phosphorimager and normalized to the global hybridization signal. Analysis was performed by Clontech using 1.7-fold change as criteria for significance. All transcriptional changes were confirmed by real time RT-PCR on independent samples (see below).\ncDNA (100 μl) was prepared from 2 μg control or BDNF-treated RNA using random primers and Superscript II reverse transcriptase. 25 μl PCR reactions were then carried out using gene specific primers designed by Primer Express software and TaqMan MGB probes (Applied Biosystems 7000 Sequence Detection System, Foster City, Calif.). Duplicate wells were included for each condition and primer pair. Primers specific to the housekeeping gene, glyceraldehyde-3-phosphate dehydrogenase (GAPDH) were used as an internal control. Data analysis was performed according to the protocol provided by Applied Biosystems."}
{"substance": "BDNF: neurotrophin, 50 ng/ml, Preprotech; induces synaptic plasticity in hippocampal neurons", "values": [{"measurement": "Fold Change Arc", "setting": "3 Hour BDNF Treatment", "result": "34.8 ± 4.3", "unit": "fold"}, {"measurement": "Fold Change CyclinD1", "setting": "3 Hour BDNF Treatment", "result": "3.3 ± 0.5", "unit": "fold"}, {"measurement": "Fold Change EGR1", "setting": "3 Hour BDNF Treatment", "result": "6.6 ± 0.9", "unit": "fold"}, {"measurement": "Fold Change Fra2", "setting": "3 Hour BDNF Treatment", "result": "2.3 ± 0.4", "unit": "fold"}, {"measurement": "Fold Change Kv + 1.1", "setting": "3 Hour BDNF Treatment", "result": "1.4 ± 0.1", "unit": "fold"}, {"measurement": "Fold Change Na + ch", "setting": "3 Hour BDNF Treatment", "result": "1.8 ± 0.2", "unit": "fold"}, {"measurement": "Fold Change PTP1B", "setting": "3 Hour BDNF Treatment", "result": "1.4 ± 0.1", "unit": "fold"}, {"measurement": "Fold Change SSTR4", "setting": "3 Hour BDNF Treatment", "result": "1.7 ± 0.1", "unit": "fold"}, {"measurement": "Fold Change SgII", "setting": "3 Hour BDNF Treatment", "result": "5.1 ± 1.2", "unit": "fold"}, {"measurement": "Fold Change VGF", "setting": "3 Hour BDNF Treatment", "result": "6.5 ± 1.5", "unit": "fold"}, {"measurement": "Fold Change c-fos", "setting": "3 Hour BDNF Treatment", "result": "2.3 ± 0.4", "unit": "fold"}, {"measurement": "Fold Change NPY", "setting": "3 Hour BDNF Treatment, n = 5", "result": "1.9 ± 0.3", "unit": "fold"}, {"measurement": "Fold Change UNC5H2", "setting": "3 Hour BDNF Treatment, n = 5", "result": "2.2 ± 0.6", "unit": "fold"}, {"measurement": "Fold Change Arc", "setting": "20 Minute BDNF Treatment", "result": "13.7 ± 5.0", "unit": "fold"}, {"measurement": "Fold Change EGR1", "setting": "20 Minute BDNF Treatment", "result": "4.3 ± 0.8", "unit": "fold"}, {"measurement": "Fold Change c-fos", "setting": "20 Minute BDNF Treatment", "result": "2.2 ± 0.4", "unit": "fold"}]}
